Consider five compounds from patent publication US20010014680A1 (priority 1998, published 2001).

Data set [1] has as its target T1, human 5HT1A receptor (Homo sapiens, UniProt P08908).
T1 construct: expressed in transfected cells; host or cells: CHO cells, stably transfected
T1 sequence (P08908 1-422): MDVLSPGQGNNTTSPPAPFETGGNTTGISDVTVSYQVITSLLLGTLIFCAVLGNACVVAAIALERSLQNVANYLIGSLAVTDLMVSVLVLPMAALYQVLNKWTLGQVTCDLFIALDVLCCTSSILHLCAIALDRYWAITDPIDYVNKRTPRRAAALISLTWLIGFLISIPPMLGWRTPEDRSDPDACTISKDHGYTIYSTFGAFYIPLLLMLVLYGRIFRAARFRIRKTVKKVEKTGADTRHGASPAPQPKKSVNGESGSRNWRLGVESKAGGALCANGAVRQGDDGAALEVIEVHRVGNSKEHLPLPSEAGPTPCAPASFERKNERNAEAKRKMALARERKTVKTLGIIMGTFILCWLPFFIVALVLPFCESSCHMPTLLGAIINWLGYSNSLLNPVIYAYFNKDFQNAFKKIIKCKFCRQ
In words: 5-HT1A Receptor Intrinsic Activity Assay (cAMP). Format: cell-based. The conditions noted are these: reversal of forskolin (1 μM) stimulated cAMP in CHO cells stably transfected with human 5-HT1A receptor; RIA. On the procedure: 5-HT1A Receptor Intrinsic Activity Assay
The intrinsic activity of compounds of the present invention was established by testing the claimed compounds ability to reverse the stimulation of cyclic adenosinemonophosphate (cAMP) in CHO cells stably transfected with the human 5-HT1A receptor.
Stably transfected CHO cells were grown in DMEM containing 10% heat inactivated FBS and non-essential amino acids. The cells are plated at a density of […] per well in a 24 well plate and incubated for 2 days in a CO2 incubator. On the second day, the media is replaced with 0.5 mL treatment buffer (DMEM + 25 mM HEPES, 5 mM theophylline, 10 μM pargyline) and incubated for 10 minutes at 37° C. Wells are treated with forskolin (1 μM final concentration) followed immediately by the test compound (0.1 and 1 μM for initial screen) and incubated for an additional 10 minutes at 37° C. The reaction is terminated by removal of the media and addition of 0.5 mL ice cold assay buffer (supplied in the RIA kit). Plates are stored at −20° C. prior to assessment of cAMP formation by RIA. EC50 values are determined for the active test compounds. Compounds shown to have no agonist activities (Emax=0%) are further analyzed for their ability to reverse agonist induced activity. In separate experiments, 6 concentrations of antagonist are preincubated for 20 minutes prior to the addition of agonist and forskolin. Cells are harvested as described above. The cAMP kit is supplied by Amersham and the RIA is performed as per kit instructions, and calculations of IC50 performed by GraphPad Prism.

Data set [2] has as its target T1, human 5HT1A receptor. Nature of the data set: 5-HT1A Receptor Binding Assay ([3H] 8-OH-DPAT displacement). The conditions noted are these: displacement of [3H] 8-OH-DPAT (1.5 nM) in CHO cells stably transfected with human 5HT1A receptor. On the procedure: 5-HT1A Receptor Binding Assay
High affinity for the serotonin 5-HT1A receptor was established by testing the claimed compound's ability to displace [^3H] 8-OH-DPAT binding in CHO cells stably transfected with the human 5HT1A receptor. Stably transfected CHO cells are grown in DMEM containing 10% heat inactivated FBS and non-essential amino acids. Cells are scraped off the plate, transferred to centrifuge tubes, and washed twice by centrifugation (2000 rpm for 10 min., 4° C.) in buffer (50 mM Tris pH 7.5). The resulting pellets are aliquoted and placed at −80° C. On the day of assay, the cells are thawed on ice and resuspended in buffer. The binding assay is performed in a 96 well microtiter plate in a total volume of 250 μL. Non-specific binding is determined in the presence of […], final ligand concentration is 1.5 nM. Following a 30 minute incubation at room temperature, the reaction is terminated by the addition of ice cold buffer and rapid filtration through a GF/B filter presoaked for 30 minutes in 0.5% PEI. Compounds are initially tested in a single point assay to determine percent inhibition at […], and Ki values are determined for the active compounds.
On the technique in general: In a radioligand displacement assay an active substance lowers the binding of a labelled ligand.

Structures can show the parent of a compound that is named as a salt.

By Emax is commonly meant the greatest response seen or fitted, relative to the assay's reference. In the case of `COc1ccccc1N1CCN(CC2CCNCC2)CC1` [Example 1, 1-(2-Methoxy-phenyl)-4-piperidin-4-ylmethyl-piperazine], the Emax in data set [1] is 0%.

As a reminder, the Ki is the dissociation constant of the complex between target and ligand, obtained from inhibition or displacement. On to `COc1ccccc1N1CCN(CC2CCN(CC3CCCCC3)CC2)CC1` [Example 3], for which, in data set [2], the Ki amounted to 8.4 nM. Also, the Emax in data set [1] is 89%.

As to `COc1ccccc1N1CCN(CC2CCCN(Cc3ccccc3)C2)CC1` (centres unmarked) [Example 9, 1-(1-Benzyl-piperidin-3-ylmethyl)-4-(2-methoxy-phenyl)-piperazine], the affinity in data set [2] corresponds to a Ki of 14 nM. The Emax in data set [1] worked out at 79%.

What is called melting point is the temperature of the solid-liquid transition. For the compound `O=C(C1CCNCC1)N1CCN(c2cccc3[nH]ccc23)CC1` (as salt: HCl) [Example 11, [4-(1H-Indol-4-yl)-piperazin-1-yl]-piperidin-4-yl-methanone], the melting point was more than 240 °C.

As for `COc1ccccc1N1CCN(CC2CCCNC2)CC1` (centres unmarked) [Example 6, 1-(2-Methoxy-phenyl)-4-piperidin-3-ylmethyl-piperazine], the affinity in data set [2] corresponds to a Ki of 2 nM. In addition, the Emax in data set [1] came out at 0%.
